Measurements taken from patent US20240261292A1, “COMBINATION THERAPIES” (Janssen Pharmaceutica NV, priority 2021, published 2024).
Where a name gives a salt, the structure may show the parent alone.

Key:
[1] = Mouse PK (in vivo T1/2 and oral bioavailability); conditions: fasted male CD-1 mice, single IV 0.5 or 1.0 mg/kg; formulating agent: A HP-β-CD, A3 Pyrogen free water
Procedure: 3) Mouse PK (In Vivo T1/2 and Oral Bioavailability)
In vivo pharmacokinetics (PK) were assessed in fasted male CD-1 mice (age 6-8 weeks) following a single intravenous (IV, 0.5 or 1.0 mg/kg administered at 2.5 ml/kg) or oral (PO, 5 mg/kg administered at 10 ml solution/kg) dose of test article formulated in a 20% (w:vol) HP-β-CD solution or in Pyrogen free water.
Plasma and/or whole blood samples were collected from the dorsal metatarsal vein at desired timepoints via serial capillary microsampling (approx. 0.03 mL) using EDTA as an anticoagulant. Concentrations of compound in the plasma and blood samples were analyzed using a qualified LC-MS/MS method. In silico analysis of main pharmacokinetic parameters was performed using WinNonlin (Phoenix™, version 6.1) or similar software.)

OCI-AML3 tumors = assay: Efficacy study in disseminated OCI-AML3 model; format: in vivo, SCID beige mice
Procedure: Day 0 is the day of tumor cell implantation and study initiation.
Median survival was determined utilizing Kaplan-Meier survival analysis.

## CCN(C(=O)c1cc(F)ccc1Oc1nncnc1N1CCC2(C1)CN([C@H](CCCN(C)CCOC)C(C)C)C2)C(C)C [Compound A3, (R)-N-ethyl-5-fluoro-N-isopropyl-2-((5-(2-(6-((2-methoxyethyl) (methyl)amino)-2-methylhexan-3-yl)-2,6-diazaspiro[3.4]octan-6-yl)-1,2,4-triazin-6-yl)oxy) benzamide oxalate]
[1]
  In vivo T1/2 (IV): 9.0 h
OCI-AML3 tumors; 30 mg/kg PO daily for 28 days
  median days of survival: 75.5 days
OCI-AML3 tumors; 50 mg/kg PO daily for 28 days
  median days of survival: 58.5 days
OCI-AML3 tumors; 100 mg/kg PO daily for 28 days
  median days of survival: 75 days
